Series [1] has as its target T1, Histone deacetylase (Homo sapiens) (UniProt Q13547+O15379+Q9UBN7+Q92769+Q9UQL6+Q8WUI4+Q9BY41+Q96DB2+P56524+Q9UKV0+Q969S8). Conditions: HeLa, at 0.1 µM.
Description: Inhibition of HDAC in human HeLa cell extract assessed as fluorophore release at 0.1 uM by fluorescence spectrophotometry
For series [2], the target named is T1, Histone deacetylase (Homo sapiens). Conditions: HeLa, at 1 µM.
Description: Inhibition of HDAC in human HeLa cell extract assessed as fluorophore release at 1 uM by fluorescence spectrophotometry
The target is the same in series [3]. Conditions: HeLa, at 10 µM.
Description: Inhibition of HDAC in human HeLa cell extract assessed as fluorophore release at 10 uM by fluorescence spectrophotometry
Series [4] has as its system HCT-116. As to the kind of experiment: Growth inhibition of human HCT116 cells after 5 days by alamar blue assay. In kind it is functional. Conditions: HCT-116, 120 h. On the technique in general: Resazurin is reduced to fluorescent resorufin, in cell work by metabolically active cells.
Series [5] has as its target Histone deacetylase. As to the kind of experiment: Inhibition of HDAC in human HeLa cell extract assessed as fluorophore release by fluorescence spectrophotometry. Type of series: protein assay.
Series [6] is described as follows: Fraction unbound in plasma. Type of series: ADME, cell-free.
In series [7] the test system is Liver. The experiment in a line: Metabolic stability in rat liver S9 fraction assessed as compound remaining. In kind it is ADME, subcellular.

What is called inhibition is how much of the control response was suppressed. Low readings indicate little suppression, high ones strong suppression. One may read the GI50 as the concentration that inhibits growth by half. A low value points to greater sensitivity of the cells. The IC50 is the midpoint of a concentration-inhibition curve. In general, fraction unbound refers to free concentration divided by total concentration. Low values mean extensive binding, high ones weak binding.

Consider `O=C(CCCC1CCN(S(=O)(=O)c2ccc(Cl)cc2)CC1)NO`, for which the inhibition in series [1] worked out at 25%; in series [2] it was 62%.
As to `O=C(CCCC1CCN(S(=O)(=O)c2ccc(F)cc2)CC1)NO`, the inhibition in series [1] was 21%; in series [2], 60%.
For the compound `O=C(CCCC1CCN(S(=O)(=O)c2ccc(-c3ccccc3)cc2)CC1)NO`, the values for the inhibition in series [1], in series [3] and in series [2] were 20%, 80% and 44%, respectively.
Take `Cc1ccccc1S(=O)(=O)N1CCC(CCCC(=O)NO)CC1`: the inhibition in series [1] was 29%; in series [2], 69%.
On the same counts, the results for `O=C(CCCC1CCN(S(=O)(=O)c2ccc(C(F)(F)F)cc2)CC1)NO` are 15% and 55%.
With `Cc1cc(C)cc(S(=O)(=O)N2CCC(CCCC(=O)NO)CC2)c1`, the inhibition was found to be 22% in series [1], 86% in series [3] and 65% in series [2].
On the same counts, the results for `O=C(/C=C/CC1CCN(S(=O)(=O)c2ccccc2)CC1)NO` are 19%, 78% and 48%.
As for `O=C(CCCC1CCN(S(=O)(=O)Cc2ccccc2)CC1)NO`, the figures for the inhibition in series [1], in series [3] and in series [2] were 17%, 71% and 58%, respectively. The GI50 in series [4] is 3200 nM.
Regarding `CC(C)c1ccc(S(=O)(=O)N2CCC(CCCC(=O)NO)CC2)cc1`, the figures for the inhibition in series [1], in series [3] and in series [2] were 18%, 84% and 66%, respectively. For the same compound, the IC50 in series [5] was 537 nM.
For `Cc1cc(C)c(S(=O)(=O)N2CCC(CCCC(=O)NO)CC2)c(C)c1`, the inhibition in series [1] was 32%; in series [2], 75%.
The matching figures for `CC(C)(C)c1ccc(S(=O)(=O)N2CCC(CCCC(=O)NO)CC2)cc1`: 9% and 51%.
For `O=C(CCCC1CCN(S(=O)(=O)c2ccccc2Cl)CC1)NO`, the figures for the inhibition in series [1], in series [3] and in series [2] were 42%, 86% and 77%, respectively. Also, the IC50 in series [5] is 173 nM. Also, it took 2800 nM to inhibit growth in series [4] by half (GI50).
Consider `COc1ccc(S(=O)(=O)N2CCC(CCCC(=O)NO)CC2)cc1OC`, for which the inhibition in series [1] is 31%; in series [3] it was 84%; in series [2], 71%. Moreover, the IC50 in series [5] worked out at 317 nM.
For `O=C(CCCC1CCN(S(=O)(=O)Nc2ccccc2)CC1)NO`, the inhibition came out at 40% in series [1] and 70% in series [2]. Further, in series [4], the GI50 is 2000 nM.
Regarding `O=C(CCCC1CCN(S(=O)(=O)c2ccccc2)CC1)NO`, the inhibition in series [1] came out at 23%; in series [3] it was 84%; in series [2] it was 63%. This compound also registered a 50% growth inhibitory concentration (GI50) in series [4] of 2700 nM.
In the case of `O=C(CCCC1CCN(S(=O)(=O)c2cccc(-c3cnco3)c2)CC1)NO`, the inhibition in series [1] was found to be 38%; in series [3] it was 85%; in series [2], 75%. In addition, in series [5], the IC50 stood at 213 nM.
Take `O=C(CCCC1CCN(S(=O)(=O)c2ccccc2C(F)(F)F)CC1)NO`: the inhibition amounted to 30% in series [1] and 69% in series [2].
Take `O=C(CCCC1CCN(S(=O)(=O)NCc2ccccc2)CC1)NO`: the inhibition was 29% in series [1] and 65% in series [2].
As for `O=C(CCCC1CCN(S(=O)(=O)c2ccc3ncsc3c2)CC1)NO`, the values for the inhibition in series [1], in series [3] and in series [2] were 26%, 84% and 69%, respectively.
With `O=C(CCCC1CCN(S(=O)(=O)c2cccc(Cl)c2)CC1)NO`, the inhibition in series [1] amounted to 4%; in series [2], 40%.
On to `O=C(CCCC1CCN(S(=O)(=O)c2cccc(C(F)(F)F)c2)CC1)NO`, for which the inhibition in series [1] turned out to be 13%; in series [2] it was 57%.
On to `COc1cccc(S(=O)(=O)N2CCC(CCCC(=O)NO)CC2)c1`, for which the inhibition in series [1] amounted to 28%; in series [3], 83%; in series [2] it was 67%.
Consider `CC1(C)CCc2cc(S(=O)(=O)N3CCC(CCCC(=O)NO)CC3)ccc2O1`, for which the inhibition was 30% in series [1], 86% in series [3] and 75% in series [2].
`Cc1cccc(S(=O)(=O)N2CCC(CCCC(=O)NO)CC2)c1`: the inhibition is 24% in series [1], 83% in series [3] and 61% in series [2].
Consider `CN(c1ccccc1)S(=O)(=O)N1CCC(CCCC(=O)NO)CC1`, for which the inhibition came out at 19% in series [1] and 48% in series [2].
Regarding `Cc1cc(S(=O)(=O)N2CCC(CCCC(=O)NO)CC2)cc2ccccc12`, the figures for the inhibition in series [1], in series [3] and in series [2] were 48%, 86% and 82%, respectively. Besides, the IC50 in series [5] stood at 124 nM. Also, the 50% growth inhibitory concentration (GI50) in series [4] was 17300 nM.
For the compound `CN1CCOc2cc(S(=O)(=O)N3CCC(CCCC(=O)NO)CC3)ccc21`, the inhibition in series [1] came out at 32%; in series [2], 71%.
The matching figures for `Cc1ccc(S(=O)(=O)N2CCC(CCCC(=O)NO)CC2)cc1`: 28% and 71%.
For the compound `CN(Cc1ccccc1)S(=O)(=O)N1CCC(CCCC(=O)NO)CC1`, the figures for the inhibition in series [1] and in series [2] were 29% and 56%, respectively.
`O=C(CCCC1CCN(S(=O)(=O)c2ccc3c(c2)OCCO3)CC1)NO`: the inhibition was determined as 29% in series [1] and 68% in series [2].
As for `O=C(CCCC1CCN(S(=O)(=O)c2ccc(-c3cnco3)cc2)CC1)NO`, the inhibition in series [1] amounted to 35%; in series [2], 74%.
`O=C(CCCC1CCN(S(=O)(=O)c2ccccc2O)CC1)NO`: the inhibition in series [1] turned out to be 37%; in series [3] it was 84%; in series [2], 75%.
In the case of `O=C(CCCC1CCN(S(=O)(=O)c2ccc3c(c2)CCO3)CC1)NO`, the inhibition is 36% in series [1] and 72% in series [2].
The compound `O=C(CCCC1CCN(S(=O)(=O)c2ccc3ccccc3c2)CC1)NO` displayed a free fraction (fraction unbound) in series [6] of 0.02. The inhibition in series [1] came out at 53%; in series [3], 86%; in series [2], 68%. The IC50 in series [5] was found to be 128 nM. The compound also registered a GI50 in series [4] of 1900 nM. In addition, the Stability in series [7] turned out to be 2%.
On to `COc1ccc(S(=O)(=O)N2CCC(CCCC(=O)NO)CC2)c(OC)c1`, for which the inhibition turned out to be 22% in series [1], 83% in series [3] and 62% in series [2].
As for `O=C(CCCC1CCN(S(=O)(=O)c2cccc3ccccc23)CC1)NO`, in series [6], the fraction unbound is 0.03. In addition, the inhibition in series [1] turned out to be 40%; in series [3], 74%; in series [2] it was 80%. For the same compound, the IC50 in series [5] stood at 181 nM. The compound also displayed a GI50 in series [4] of 1040 nM. Moreover, the Stability in series [7] came out at 14%.

For the origin of these results see ChEMBL document CHEMBL1909626, “4-N-Hydroxy-4-[1-(sulfonyl)piperidin-4-yl]-butyramides as HDAC inhibitors” (Bioorg Med Chem Lett, 2011).
